Assay results published in patent US9156790B2, “Anticancer P21-activated kinase inhibitors” (Ohio State Innovation Foundation, priority 2013, dated 2015).

Assays:
[1] = target: JAK2 (Homo sapiens, UniProt O60674); experiment: Kinase profiling panel: JAK2; format: biochemical; details: 5 μM compound; average of triplicate
Description: (§1) To further probe the selectivity of the compounds 4 and 15, they were subjected for kinase profiling service for screening against a panel of other kinases selected based on the kinase tree at 5 μM concentration, at or above the IC50 for the two compounds versus PAK in both in vitro and cell-based assays. […] PAK1 was not available for testing using this system thus it was not possible to compare directly in this assay system.

[2] = target: Ret (Homo sapiens, UniProt P07949); experiment: Kinase profiling panel: Ret; format: biochemical; details: 5 μM compound; average of triplicate
Description: as §1

[3] = target: ROCK-I (Homo sapiens, UniProt Q13464); experiment: Kinase profiling panel: ROCK-I; format: biochemical; details: 5 μM compound; average of triplicate
Description: as §1

[4] = tested on: BCPAP cells transfected with constitutively activated PAK1 cDNA; experiment: Migration rescue experiment with constitutively activated PAK1; format: cell-based, Human; details: 1 μM compound, 24 hours, P<0.05
Description: Myc-tagged constitutively activated (CA) PAK1 cDNAs was the generous gift of Dr. Jonathan Chernoff (Fox Chase Cancer Center, Philadelphia, Pa.). Sells et al., J Cell Biol 145:837-849 (1999). pRC/CMV and pcDNA3.1(+) vector were purchased from Life Technologies. BCPAP cells were grown in RPMI containing 10% FBS until 40-50% confluent. They were transfected with CAPAK1 cDNA or a vector control, washed with PBS, trypsinized with 0.05% Trypsin-EDTA 1× (Gibco) for 5-10 min, collected with 10% FBS RPMI, and centrifuged at 300 g for 5 min. Cells were resuspended with 0% FBS RPMI and counted using Countess™ (Invitrogen). Then a volume of 1×10^5 cells suspended in 300 μl of 0% FBS RPMI was placed into Boyden chamber inserts (8 μm pore). The inserts were placed into wells of a 24 well plate filled with 400 μl of 0% FBS RPMI. The plate was incubated at 37° C. 5% CO2 for 1 hour. Then 30 μl (1 μM) of either compound 4 or 15 was added to the inserts and then incubated again for 1 hour. The inserts were transferred into different wells filled with 400 μl of 10% FBS RPMI. After incubation for 24 hours, the cells on either side of the insert membrane were fixed and quantified as above. Experiments were performed in triplicate on three occasions.
Because the compounds are multikinase inhibitors, we next sought to determine if PAK1 inhibition was responsible for some of the biological effects of the compounds. […]

[5] = target: GSK3β (Homo sapiens, UniProt P49841); experiment: Kinase profiling panel: GSK3β; format: biochemical; details: 5 μM compound; average of triplicate
Description: as §1

[6] = target: PKCα (Homo sapiens, UniProt P17252); experiment: Kinase profiling panel: PKCα; format: biochemical; details: 5 μM compound; average of triplicate
Description: as §1

[7] = target: CHK1 (Homo sapiens, UniProt O14757); experiment: Kinase profiling panel: CHK1; format: biochemical; details: 5 μM compound; average of triplicate
Description: as §1

[8] = target: EGFR (Homo sapiens, UniProt P00533); experiment: Kinase profiling panel: EGFR; format: biochemical; details: 5 μM compound; average of triplicate
Description: as §1

[9] = target: ROCK-II (Homo sapiens, UniProt O75116); experiment: Kinase profiling panel: ROCK-II; format: biochemical; details: 5 μM compound; average of triplicate
Description: as §1

[10] = target: IGF-1R, activated (Homo sapiens, UniProt P08069); experiment: Kinase profiling panel: IGF-1R, activated; format: biochemical; details: 5 μM compound; average of triplicate
Description: as §1

[11] = target: T1, SGK (Homo sapiens, UniProt O00141); experiment: Kinase profiling panel: SGK; format: biochemical; details: 5 μM compound; for % activity vs. DMSO, SGK: average of triplicate
T1 sequence (O00141 1-431): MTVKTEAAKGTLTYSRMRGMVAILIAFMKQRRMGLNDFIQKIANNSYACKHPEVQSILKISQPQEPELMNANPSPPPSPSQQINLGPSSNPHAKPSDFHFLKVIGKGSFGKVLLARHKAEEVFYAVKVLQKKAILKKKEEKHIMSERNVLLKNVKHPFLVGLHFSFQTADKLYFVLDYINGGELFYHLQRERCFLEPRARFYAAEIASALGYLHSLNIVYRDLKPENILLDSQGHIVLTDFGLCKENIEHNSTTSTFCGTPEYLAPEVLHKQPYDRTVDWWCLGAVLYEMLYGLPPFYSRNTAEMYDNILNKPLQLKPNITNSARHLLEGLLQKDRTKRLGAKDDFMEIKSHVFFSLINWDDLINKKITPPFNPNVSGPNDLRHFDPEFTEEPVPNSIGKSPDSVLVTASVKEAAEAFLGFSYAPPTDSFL
Description: as §1

Sequence of CHK1 (O14757 whole entry, species assumed): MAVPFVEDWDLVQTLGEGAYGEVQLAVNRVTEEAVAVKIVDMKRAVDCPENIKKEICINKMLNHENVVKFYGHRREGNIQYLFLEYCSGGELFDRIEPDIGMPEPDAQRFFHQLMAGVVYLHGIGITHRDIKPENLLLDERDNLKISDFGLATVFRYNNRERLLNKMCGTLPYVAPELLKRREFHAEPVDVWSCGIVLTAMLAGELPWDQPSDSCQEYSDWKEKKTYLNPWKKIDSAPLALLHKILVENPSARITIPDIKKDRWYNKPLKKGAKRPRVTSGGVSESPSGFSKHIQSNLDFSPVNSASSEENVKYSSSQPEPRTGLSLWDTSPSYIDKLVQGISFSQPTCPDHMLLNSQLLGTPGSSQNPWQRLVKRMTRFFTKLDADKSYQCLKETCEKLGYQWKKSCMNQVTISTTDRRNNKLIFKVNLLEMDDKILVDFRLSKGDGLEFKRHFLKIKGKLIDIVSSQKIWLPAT
Sequence of ROCK-II (O75116 whole entry, species assumed): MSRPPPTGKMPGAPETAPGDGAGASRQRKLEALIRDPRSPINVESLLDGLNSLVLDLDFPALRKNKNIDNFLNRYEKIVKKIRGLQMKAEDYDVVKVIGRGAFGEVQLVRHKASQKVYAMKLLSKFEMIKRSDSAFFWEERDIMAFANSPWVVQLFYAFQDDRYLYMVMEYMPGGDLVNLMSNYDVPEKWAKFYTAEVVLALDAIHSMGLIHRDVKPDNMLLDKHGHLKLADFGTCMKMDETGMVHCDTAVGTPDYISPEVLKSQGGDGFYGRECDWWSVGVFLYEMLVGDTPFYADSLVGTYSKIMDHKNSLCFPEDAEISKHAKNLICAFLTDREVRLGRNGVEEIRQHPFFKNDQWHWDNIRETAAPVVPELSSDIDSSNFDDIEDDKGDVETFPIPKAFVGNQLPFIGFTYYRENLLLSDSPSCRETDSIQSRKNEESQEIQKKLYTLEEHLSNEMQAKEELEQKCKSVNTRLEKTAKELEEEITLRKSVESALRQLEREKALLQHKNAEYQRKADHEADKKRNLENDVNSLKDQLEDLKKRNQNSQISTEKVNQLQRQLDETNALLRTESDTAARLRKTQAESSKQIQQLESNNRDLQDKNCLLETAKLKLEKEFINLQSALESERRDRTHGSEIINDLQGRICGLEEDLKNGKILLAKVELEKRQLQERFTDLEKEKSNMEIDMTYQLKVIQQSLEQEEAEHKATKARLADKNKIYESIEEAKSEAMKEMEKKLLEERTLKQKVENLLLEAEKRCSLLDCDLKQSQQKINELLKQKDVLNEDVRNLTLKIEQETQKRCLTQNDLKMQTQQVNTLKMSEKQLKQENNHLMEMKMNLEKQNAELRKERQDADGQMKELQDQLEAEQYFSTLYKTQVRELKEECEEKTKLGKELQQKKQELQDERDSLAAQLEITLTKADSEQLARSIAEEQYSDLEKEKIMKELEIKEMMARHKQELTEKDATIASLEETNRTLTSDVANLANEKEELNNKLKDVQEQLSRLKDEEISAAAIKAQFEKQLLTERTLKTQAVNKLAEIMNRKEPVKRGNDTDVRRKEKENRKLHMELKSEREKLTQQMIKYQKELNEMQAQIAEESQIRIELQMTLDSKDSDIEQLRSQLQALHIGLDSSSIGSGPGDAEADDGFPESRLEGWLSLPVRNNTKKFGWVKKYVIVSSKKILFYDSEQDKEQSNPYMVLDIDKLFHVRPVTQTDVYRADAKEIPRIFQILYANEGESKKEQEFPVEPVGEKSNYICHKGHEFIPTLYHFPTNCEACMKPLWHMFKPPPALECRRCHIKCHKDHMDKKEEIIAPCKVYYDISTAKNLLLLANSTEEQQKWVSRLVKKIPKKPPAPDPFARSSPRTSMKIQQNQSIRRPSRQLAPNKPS
Sequence of Ret (P07949 29-1114, species assumed): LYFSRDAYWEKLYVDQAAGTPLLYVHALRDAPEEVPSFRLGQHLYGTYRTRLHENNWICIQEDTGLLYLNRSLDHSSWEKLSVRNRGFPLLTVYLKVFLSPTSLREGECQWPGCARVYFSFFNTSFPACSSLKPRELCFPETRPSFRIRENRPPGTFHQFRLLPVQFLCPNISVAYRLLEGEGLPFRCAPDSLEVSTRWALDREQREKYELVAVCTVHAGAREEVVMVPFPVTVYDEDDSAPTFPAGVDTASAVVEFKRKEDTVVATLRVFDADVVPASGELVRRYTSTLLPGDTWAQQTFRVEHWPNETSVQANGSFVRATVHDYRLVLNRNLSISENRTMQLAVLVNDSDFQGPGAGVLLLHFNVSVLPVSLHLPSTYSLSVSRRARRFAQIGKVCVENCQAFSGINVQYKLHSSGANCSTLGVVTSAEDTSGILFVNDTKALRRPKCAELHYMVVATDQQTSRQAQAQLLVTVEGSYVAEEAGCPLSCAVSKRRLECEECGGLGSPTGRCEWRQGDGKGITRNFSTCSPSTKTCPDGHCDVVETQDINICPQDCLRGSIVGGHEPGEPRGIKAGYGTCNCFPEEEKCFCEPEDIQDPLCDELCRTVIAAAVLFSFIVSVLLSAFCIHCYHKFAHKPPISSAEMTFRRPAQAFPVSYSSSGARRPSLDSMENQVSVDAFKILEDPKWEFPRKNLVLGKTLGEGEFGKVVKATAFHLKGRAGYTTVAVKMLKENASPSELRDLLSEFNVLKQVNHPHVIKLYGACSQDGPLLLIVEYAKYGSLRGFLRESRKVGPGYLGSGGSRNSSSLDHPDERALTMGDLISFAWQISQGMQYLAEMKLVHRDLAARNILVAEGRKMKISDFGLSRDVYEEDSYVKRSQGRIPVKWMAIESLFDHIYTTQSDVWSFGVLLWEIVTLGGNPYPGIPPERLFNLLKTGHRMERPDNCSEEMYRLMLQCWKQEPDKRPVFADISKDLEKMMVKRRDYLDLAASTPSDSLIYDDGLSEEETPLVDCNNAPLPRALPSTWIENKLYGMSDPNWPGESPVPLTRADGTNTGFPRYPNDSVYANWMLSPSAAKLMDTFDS
Sequence of IGF-1R, activated (P08069 31-1367): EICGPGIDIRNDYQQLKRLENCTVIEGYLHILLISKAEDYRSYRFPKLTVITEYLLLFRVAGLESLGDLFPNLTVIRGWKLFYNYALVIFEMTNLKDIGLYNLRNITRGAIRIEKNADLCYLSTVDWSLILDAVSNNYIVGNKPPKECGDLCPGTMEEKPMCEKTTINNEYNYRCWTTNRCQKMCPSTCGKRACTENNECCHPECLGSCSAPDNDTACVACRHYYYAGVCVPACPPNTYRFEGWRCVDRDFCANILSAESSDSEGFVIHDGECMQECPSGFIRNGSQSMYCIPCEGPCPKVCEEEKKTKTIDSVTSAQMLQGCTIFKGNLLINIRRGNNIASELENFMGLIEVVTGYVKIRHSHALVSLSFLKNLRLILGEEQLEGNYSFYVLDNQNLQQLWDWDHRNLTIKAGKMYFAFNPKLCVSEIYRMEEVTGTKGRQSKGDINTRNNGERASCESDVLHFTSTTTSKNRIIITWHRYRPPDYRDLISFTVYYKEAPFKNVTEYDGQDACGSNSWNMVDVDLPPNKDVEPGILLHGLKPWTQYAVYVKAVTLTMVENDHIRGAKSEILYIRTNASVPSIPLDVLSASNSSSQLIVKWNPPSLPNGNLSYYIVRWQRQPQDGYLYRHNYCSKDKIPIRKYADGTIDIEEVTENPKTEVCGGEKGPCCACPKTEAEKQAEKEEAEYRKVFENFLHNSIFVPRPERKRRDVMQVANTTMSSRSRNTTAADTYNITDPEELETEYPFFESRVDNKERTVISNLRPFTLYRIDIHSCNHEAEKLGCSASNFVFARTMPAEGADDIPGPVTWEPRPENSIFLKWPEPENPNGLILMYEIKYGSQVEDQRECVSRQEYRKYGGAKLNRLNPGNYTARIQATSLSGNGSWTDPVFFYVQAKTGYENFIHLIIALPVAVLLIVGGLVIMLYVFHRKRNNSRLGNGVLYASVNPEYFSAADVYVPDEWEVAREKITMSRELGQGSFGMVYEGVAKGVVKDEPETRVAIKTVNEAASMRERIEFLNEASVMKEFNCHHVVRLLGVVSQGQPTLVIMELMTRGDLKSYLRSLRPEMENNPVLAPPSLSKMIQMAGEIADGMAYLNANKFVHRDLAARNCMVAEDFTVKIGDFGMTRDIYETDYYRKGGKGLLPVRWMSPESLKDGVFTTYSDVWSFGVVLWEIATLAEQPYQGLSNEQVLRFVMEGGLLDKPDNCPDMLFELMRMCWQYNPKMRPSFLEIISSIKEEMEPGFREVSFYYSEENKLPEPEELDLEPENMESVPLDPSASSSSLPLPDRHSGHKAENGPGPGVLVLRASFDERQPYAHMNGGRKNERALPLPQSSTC
Sequence of GSK3β (P49841 whole entry, species assumed): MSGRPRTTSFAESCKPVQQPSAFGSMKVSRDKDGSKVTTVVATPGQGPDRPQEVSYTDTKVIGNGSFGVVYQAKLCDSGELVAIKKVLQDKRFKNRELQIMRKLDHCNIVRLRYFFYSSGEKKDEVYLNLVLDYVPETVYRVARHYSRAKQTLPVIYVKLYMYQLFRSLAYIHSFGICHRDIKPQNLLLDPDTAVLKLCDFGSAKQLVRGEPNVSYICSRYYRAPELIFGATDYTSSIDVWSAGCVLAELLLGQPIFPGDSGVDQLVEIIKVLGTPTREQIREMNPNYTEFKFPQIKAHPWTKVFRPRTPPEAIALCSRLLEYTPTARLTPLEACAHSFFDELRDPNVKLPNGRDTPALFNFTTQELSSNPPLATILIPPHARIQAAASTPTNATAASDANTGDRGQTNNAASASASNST

| Structure (SMILES) | % activity vs. DMSO, JAK2 [1] [%] | % activity vs. DMSO, Ret [2] [%] | % activity vs. DMSO, ROCK-I [3] [%] | Rescue of anti-migratory effect by constitutively activated PAK1 [4] | % activity vs. DMSO, GSK3β [5] [%] | % activity vs. DMSO, PKCα [6] [%] | % activity vs. DMSO, CHK1 [7] [%] | % activity vs. DMSO, EGFR [8] [%] | % activity vs. DMSO, ROCK-II [9] [%] | % activity vs. DMSO, IGF-1R, activated [10] [%] | inhibition at 5 µM [11] [%] | % activity vs. DMSO, SGK [11] [%] |
| --- | --- | --- | --- | --- | --- | --- | --- | --- | --- | --- | --- | --- |
| NCCC(=O)Nc1ccc(-n2nc(C(F)(F)F)cc2-c2ccc3ccc4ccccc4c3c2)cc1 [Compound 4, 3-amino-N-(4-(5-(phenanthren-3-yl)-3-(trifluoromethyl)-1H-pyrazol-1-yl)phenyl)-propanamide] | 152 | 97 | 93 | rescued | 170 | 92 | 82 | 99 | 79 | 97 | > 50 | 27 |
| CC(C)NC(=O)c1cc(-c2ccc3ccc4ccccc4c3c2)n(-c2ccc(NC(=O)CN)cc2)n1 [Compound 15, 1-(4-(2-Aminoacetamido)phenyl)-N-isopropyl-5-(phenanthren-3-yl)-1H-pyrazole-3-carboxamide] | 139 | 76 | 95 | rescued | 137 | 92 | 89 | 100 | 96 | 83 | – | 64 |
